This is an account of results in US11306074B2, “Chemical and method for analyzing DNA sequence by visualizing single-molecule DNA and use thereof” (SOGANG UNIVERSITY RESEARCH FOUNDATION, priority 2018, dated 2022).

Assay [1] has as its system λ DNA. The settings on record: for staining / visualization of λ DNA molecules: λ DNA (48.5 kbp) tethered, 1×TE flow 100 μL/minute, 70 μM dye solution mixed 1:1, 20-fold diluted, FIGS. 2a-2c. The protocol: An inverted microscope (Olympus IX70, Tokyo, Japan) with 60× Olympus UPlanSApo oil immersion objectives illuminated with an LED light source (SOLA SM II light engine, Lumencor, Beaverton, Oreg., USA) was used. The light was passed through corresponding filter sets (Semrock, Rochester, N.Y., USA) to set the excitation and emission wavelengths. A maximum light intensity of 140 mW/cm^2 was measured. Fluorescence microscopic images were taken with an electron-multiplying charge-coupled device digital camera (Evolve EMCCD, Roper Scientific, Tucson, Ariz., USA) and stored in a 16-bit TIFF format using the software Micro-manager. For image processing and analysis, ImageJ software with Java plug-ins and python programs developed by the present inventors were utilized.
First, λ DNA (NCBI: NC_001416.1) was diluted to a concentration of 5 ng/μL (0.16 nM; base pair 7.76 μM) in 1×TE (10 mM Tris, 1 mM EDTA, pH 8.0) and mixed at a volume ratio of 1:1 with 70 μM of the Preparation Example solution. Next, the mixture was incubated at room temperature for 15 min and 20-fold diluted with 4% […] (β-ME) in 1×TE.
Separately, a flow chamber (5×10×0.1 mm (L×W×H)) was prepared by placing an acrylic support on an acid-cleaned cover slip, with the walls formed by double-sided tape, An NE-1000 syringe pump (New Era Pump Systems Inc., Wantagh, N.Y.) was used to control the buffer.
Thereafter, 40 μg/mL biotinylated bovine serum albumin (BSA) was injected and incubated at room temperature for 10 min, after which a dilution of 20 μg/mL Neutravidin in T50 solution (10 mM Tris, […], pH 8.0) was injected to the flow chamber and incubated at room temperature for 10 min.
Then, 1 μM of λ DNA overhang oligo (5′-p-[…]-Triethyleneglycol-biotin-3′) was loaded into the flow chamber and maintained at room temperature for 10 minutes. λ DNA, 200 U of T4 DNA ligase, and reaction buffer were added and incubated at room temperature for 30 minutes.
Stained DNA molecules were visualized under a continuous flow of 1×TE (100 μl/minute).

Assay [2] relates to polytene chromosomes from the Drosophila melanogaster salivary gland. The settings on record: 2.5 μM in 4% β-ME; tangled and spread polytene chromosomes; FIG. 5a.
Source text: For comparison with DAPI, which is conventionally used to visualize polytene chromosomes on a fluorescence microscope, the polytene chromosomes from the Drosophila melanogaster salivary gland were stained with the compound.
In brief, dissected salivary glands from third larvae of Drosophila melanogaster were fixed with a solution containing a 1:2:3 ratio of propionic acid, deionized water, and acetic acid on a positively charged coverslip. Then, the cells were located between a slide glass and the coverslip and then the individual cells were gently spread. After moving the coverslip back and forth on the slide glass, the spread cells were squashed for up to 15 minutes. Then, the slide glass and coverslip were slightly dipped into liquid nitrogen. Just after no more bubbles were generated, the cover slip was removed from the slide glass.
Assay [3] concerns λ DNA genome.
Source text: Python Program • ImageCompare.py: a library of functions, • seq2map.py: to convert a FASTA file into a A/T frequency in silico map wherein a selected sequence is represented in white for high frequency regions and in black for low frequency regions. • insilicoMapFolder.py: to scan and compare in silico image files and DNA images obtained through experiments with respect to all images in the folder, to search positions of sites having the highest cross-correlation coefficient, to convert the values, and to store the values in new record files. • sortView.py: to read record files obtained with the insilicoMapFolder.py, to compare signals, to search cross-correlation coefficients, and to visualize image comparison in a new window. • randomtiff.py: to generate random intensity tiff images
Cross-correlation (cc) coefficient values calculated by comparing the alignment of 20 molecular images of above three kinds of binding sequences (W, W4 and W9) with the genome. The control cross-correlation coefficient (hereinafter referred to as cc) was obtained by comparing the 100 computer-generated random sequences with the in silico images (***P<0.0001 for random-sequences paired t-test).

Consider “(5-carboxytetramethylrhodamine)-(β-alanine)2-(N-methylpyrrole)4-(5-carboxytetramethylrhodamine) [Comparative Example 2, reference compound]”, for which the “staining / visualization of λ DNA molecules” value (from here on “staining / visualization”) in assay [1] is recorded as “did not bind double-stranded DNA at all”.

As to `CN(C)CCCNC(=O)c1cc(NC(=O)c2cc(NC(=O)c3cc(NC(=O)c4cc(NC(=O)CCNC(=O)CCNC(=O)c5ccc(C(=O)[O-])c(-c6c7ccc(=[N+](C)C)cc-7oc7cc(N(C)C)ccc67)c5)cn4C)cn3C)cn2C)cn1C` [Comparative Example 1, (5-carboxytetramethylrhodamine)-(β-alanine)2-(N-methylpyrrole)4-(3-(dimethylamino)propylamine), reference compound], in assay [1], the “staining / visualization” value is “stained only in part AT-rich regions and bound undesired regions”.

For `CN(C)CCCNC(=O)c1cc(NC(=O)c2cc(NC(=O)c3cc(NC(=O)c4cc(NC(=O)CCNC(=O)c5cc(NC(=O)c6cc(NC(=O)c7cc(NC(=O)c8cc(NC(=O)CCNC(=O)CCNC(=O)c9ccc(-c%10c%11ccc(=[N+](C)C)cc-%11oc%11cc(N(C)C)ccc%10%11)c(C(=O)[O-])c9)cn8C)cn7C)cn6C)cn5C)cn4C)cn3C)cn2C)cn1C` [Preparation Example, (5-carboxytetramethylrhodamine)-(β-alanine)2-(N-methylpyrrole)4-(β-alanine)-(N-methylpyrrole)4-(3-(dimethylamino)propylamine)], in assay [2], the “staining of polytene chromosomal DNA” value was “clearly demonstrate band and interband patterns”. In assay [1], the “staining / visualization” value is given as “visualized λ DNA molecules with sequence specificity as well as enhancing the intensity of the molecules”. Further, the “fluorescent λ DNA image quality compared with DAPI” value in assay [1] (λ DNA images, FIG. 5b) was “exhibits a clear backbone compared with DAPI-stained DNA”. Also, the “cross-correlation coefficient (cc) of 20 molecular images aligned with λ DNA genome” value in assay [3] (W, W4, W9 maps, Python program, FIG. 3b) is given as “highest cc value for simple A/T frequency”. Besides, the “agreement of measured fluorescence intensity with in silico binding sequence profiles (W, W4, W9)” value in assay [3] (λ genome, FIG. 3a) was “agrees better with simple A/T frequency than W4 and W9”.
